Results published in US10913727B2, “Modulators of the integrated stress pathway” (Calico Life Sciences LLC, priority 2016, dated 2021).

Tested on: HEK293T cells carrying the ATF4 luciferase reporter
Assay: ATF4-Luc assay, in vitro model of Vanishing Cell White Matter Disease (VWMD)
Format: cell-based
Settings: Homo sapiens, HEK-293T, 1 μg/mL tunicamycin, 7 hours, One Glo luminescence
Method in brief: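 Compound at 200 nM and tunicamycin at 1 μg/mL were given together for 7 h to HEK293T cells stably transduced with an ATF4 5′-UTR-driven firefly luciferase reporter. Read-out by luminescence, reported as EC50.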

Row | SMILES | EC50 [nM]
1 | CCN(CC)c1cccc(C(=O)NC23CC(NC(=O)COc4ccc(Cl)c(F)c4)(C2)C3)c1 [Compound 543, N-{3-[2-(4-chloro-3-fluorophenoxy)acetamido]bicyclo[1.1.1]pentan-1-yl}-3-(diethylamino)benzamide] | > 2000
2 | O=C(COc1ccc(Cl)c(F)c1)NC12CCC(NC(=O)c3cccnc3)(C1)C2 [Compound 477, N-{4-[2-(4-chloro-3-fluorophenoxy)acetamido]bicyclo[2.1.1]hexan-1-yl}pyridine-3-carboxamide] | 1000 to 2000
3 | O=C(COc1ccc(Cl)c(F)c1)NC12CCC(NC(=O)c3ccc4oc(=O)ccc4c3)(CC1)[C@@H](O)C2 [Compound 407, N-{(2S)-4-[2-(4-chloro-3-fluorophenoxy)acetamido]-2-hydroxybicyclo[2.2.2]octan-1-yl}-2-oxo-2H-1-benzopyran-6-carboxamide] | 1000 to 2000
4 | CCSc1cncc(C(=O)NC23CC(NC(=O)COc4ccc(Cl)c(F)c4)(C2)C3)n1 [Compound 898, N-{3-[2-(4-chloro-3-fluorophenoxy)acetamido]bicyclo[1.1.1]pentan-1-yl}-6-(ethylsulfanyl)pyrazine-2-carboxamide] | 50 to 250
5 | O=C(COc1ccc(Cl)c(F)c1)NC12CC(Nc3nccn4ncnc34)(C1)C2 [Compound 448, 2-(4-chloro-3-fluorophenoxy)-N-{3-[([1,2,4]triazolo[1,5-a]pyrazin-8-yl)amino]bicyclo[1.1.1]pentan-1-yl}acetamide] | 1000 to 2000
6 | COCc1ccc(C(=O)NC23CC(NC(=O)COc4ccc(Cl)c(F)c4)(C2)C3)o1 [Compound 242, N-{3-[2-(4-chloro-3-fluorophenoxy)acetamido]bicyclo[1.1.1]pentan-1-yl}-5-(methoxymethyl)furan-2-carboxamide] | 50 to 250
7 | Cc1cc(C(=O)NC23CCC(NC(=O)COc4ccc(Cl)c(F)c4)(C2)C3)sn1 [Compound 710, N-{4-[2-(4-chloro-3-fluorophenoxy)acetamido]bicyclo[2.1.1]hexan-1-yl}-3-methyl-1,2-thiazole-5-carboxamide] | 250 to 1000
8 | Cc1cncc(C(=O)NC23CC(NC(=O)COc4ccc(Cl)c(Cl)c4)(C2)C3)n1 [Compound 737, N-{3-[2-(3,4-dichlorophenoxy)acetamido]bicyclo[1.1.1]pentan-1-yl}-6-methylpyrazine-2-carboxamide] | 250 to 1000
9 | CC(=O)Nc1cncc(C(=O)NC23CC(NC(=O)COc4ccc(Cl)c(F)c4)(C2)C3)c1 [Compound 822, 5-acetamido-N-{3-[2-(4-chloro-3-fluorophenoxy)acetamido]bicyclo[1.1.1]pentan-1-yl}pyridine-3-carboxamide] | > 2000
10 | O=C(COc1ccc(Cl)c(F)c1)NC12CC(Nc3nccc(-c4ccc(Cl)cc4)n3)(C1)C2 [Compound 370, 2-(4-chloro-3-fluorophenoxy)-N-(3-{[4-(4-chlorophenyl)pyrimidin-2-yl]amino}bicyclo[1.1.1]pentan-1-yl)acetamide] | < 50
11 | NCc1ccnc(C(=O)NC23CC(NC(=O)COc4ccc(Cl)c(Cl)c4)(C2)C3)c1 [Compound 615, 4-(aminomethyl)-N-{3-[2-(3,4-dichlorophenoxy)acetamido]bicyclo[1.1.1]pentan-1-yl}pyridine-2-carboxamide] | 50 to 250
12 | Cc1nc(C(=O)NC23CC(NC(=O)COc4ccc(Cl)c(F)c4)(C2)C3)co1 [Compound 249, N-{3-[2-(4-chloro-3-fluorophenoxy)acetamido]bicyclo[1.1.1]pentan-1-yl}-2-methyl-1,3-oxazole-4-carboxamide] | 50 to 250
13 | CCc1nc(C(=O)NC23CC(NC(=O)COc4ccc(Cl)c(F)c4)(C2)C3)cs1 [Compound 554, N-{3-[2-(4-chloro-3-fluorophenoxy)acetamido]bicyclo[1.1.1]pentan-1-yl}-2-ethyl-1,3-thiazole-4-carboxamide] | < 50
14 | Cn1ncc2cccc(C(=O)NC34CC(NC(=O)COc5ccc(Cl)c(F)c5)(C3)C4)c21 [Compound 786, N-{3-[2-(4-chloro-3-fluorophenoxy)acetamido]bicyclo[1.1.1]pentan-1-yl}-1-methyl-1H-indazole-7-carboxamide] | > 2000
15 | O=C(COc1ccc(Cl)c(F)c1)NC12CCC(NC(=O)c3cc(C(F)F)no3)(CC1)C[C@@H]2O [Compound 671, N-{(3S)-4-[2-(4-chloro-3-fluorophenoxy)acetamido]-3-hydroxybicyclo[2.2.2]octan-1-yl}-3-(difluoromethyl)-1,2-oxazole-5-carboxamide] | < 50
16 | Cc1cc(C(=O)NC23CC(NC(=O)COc4ccc(Cl)c(F)c4)(C2)C3)n(C(F)F)n1 [Compound 913, N-{3-[2-(4-chloro-3-fluorophenoxy)acetamido]bicyclo[1.1.1]pentan-1-yl}-1-(difluoromethyl)-3-methyl-1H-pyrazole-5-carboxamide] | 250 to 1000
17 | Cc1cnc2cc(C(=O)NC34CC(NC(=O)COc5ccc(Cl)c(F)c5)(C3)C4)nn2c1 [Compound 833, N-{3-[2-(4-chloro-3-fluorophenoxy)acetamido]bicyclo[1.1.1]pentan-1-yl}-6-methylpyrazolo[1,5-a]pyrimidine-2-carboxamide] | 1000 to 2000

Row | SMILES | EC50 [nM]
18 | Cc1cncc(C(=O)NC23CC(NC(=O)COc4ccc(Cl)c(F)c4)(C2)C3)n1 [Compound 650, N-{3-[2-(4-chloro-3-fluorophenoxy)acetamido]bicyclo[1.1.1]pentan-1-yl}-6-methylpyrazine-2-carboxamide] | 50 to 250
19 | O=C(COc1ccc(Cl)c(F)c1)NC12CCC(NC(=O)c3ccc(C(F)(F)F)o3)(CC1)CC2O (stereo not shown) [Compound 625, N-{4-[2-(4-chloro-3-fluorophenoxy)acetamido]-3-hydroxybicyclo[2.2.2]octan-1-yl}-5-(trifluoromethyl)furan-2-carboxamide] | 250 to 1000
20 | Cc1ccn2cc(C(=O)NC34CCC(NC(=O)COc5ccc(Cl)c(F)c5)(CC3)C(O)C4)nc2c1 (stereo not shown) [Compound 598, N-{4-[2-(4-chloro-3-fluorophenoxy)acetamido]-3-hydroxybicyclo[2.2.2]octan-1-yl}-7-methylimidazo[1,2-a]pyridine-2-carboxamide] | 50 to 250
21 | O=C(COc1ccc(Cl)c(F)c1)NC12CC(NC(=O)c3c[nH]c4ccccc34)(C1)C2 [Compound 313, N-{3-[2-(4-chloro-3-fluorophenoxy)acetamido]bicyclo[1.1.1]pentan-1-yl}-1H-indole-3-carboxamide] | 50 to 250
22 | Cc1cc(C(=O)NC23CCC(NC(=O)COc4ccc(F)c(F)c4)(CC2)C(O)C3)on1 (stereo not shown) [Compound 462, N-{4-[2-(3,4-difluorophenoxy)acetamido]-3-hydroxybicyclo[2.2.2]octan-1-yl}-3-methyl-1,2-oxazole-5-carboxamide] | 250 to 1000
23 | O=C(COc1ccc(Cl)c(F)c1)NC12CC(Nc3ccn4nccc4n3)(C1)C2 [Compound 609, 2-(4-chloro-3-fluorophenoxy)-N-{3-[(pyrazolo[1,5-a]pyrimidin-5-yl)amino]bicyclo[1.1.1]pentan-1-yl}acetamide] | 1000 to 2000
24 | Cc1ncc(C(=O)NC23CC(NC(=O)COc4ccc(Cl)c(F)c4)(C2)C3)cn1 [Compound 121, N-{3-[2-(4-chloro-3-fluorophenoxy)acetamido]bicyclo[1.1.1]pentan-1-yl}-2-methylpyrimidine-5-carboxamide] | 1000 to 2000
25 | Cc1nn(C)cc1C(=O)NC12CC(NC(=O)COc3ccc(Cl)c(F)c3)(C1)C2 [Compound 846, N-{3-[2-(4-chloro-3-fluorophenoxy)acetamido]bicyclo[1.1.1]pentan-1-yl}-1,3-dimethyl-1H-pyrazole-4-carboxamide] | 1000 to 2000
26 | N#CCCc1ccc(C(=O)NC23CCC(NC(=O)COc4ccc(Cl)c(F)c4)(C2)C3)nc1 [Compound 336, N-{4-[2-(4-chloro-3-fluorophenoxy)acetamido]bicyclo[2.1.1]hexan-1-yl}-5-(2-cyanoethyl)pyridine-2-carboxamide] | > 2000
27 | O=C(COc1ccc(Cl)c(F)c1)NC12CCC(NC(=O)c3ccc(N4CCCC4)cn3)(CC1)CC2O (stereo not shown) [Compound 940, N-{4-[2-(4-chloro-3-fluorophenoxy)acetamido]-3-hydroxybicyclo[2.2.2]octan-1-yl}-5-(pyrrolidin-1-yl)pyridine-2-carboxamide] | 50 to 250
28 | Cc1cc(C(=O)NC23CC(NC(=O)COc4ccc(Cl)c(Cl)c4)(C2)C3)cnc1C [Compound 693, N-{3-[2-(3,4-dichlorophenoxy)acetamido]bicyclo[1.1.1]pentan-1-yl}-5,6-dimethylpyridine-3-carboxamide] | 250 to 1000
29 | Cn1cc(-c2ccnc(NC34CC(NC(=O)COc5ccc(Cl)c(F)c5)(C3)C4)n2)cn1 [Compound 381, 2-(4-chloro-3-fluorophenoxy)-N-(3-{[4-(1-methyl-1H-pyrazol-4-yl)pyrimidin-2-yl]amino}bicyclo[1.1.1]pentan-1-yl)acetamide] | 1000 to 2000
30 | O=C(COc1ccc(Cl)c(F)c1)NC12CCC(NC(=O)c3cscn3)(CC1)C(O)C2 (stereo not shown) [Compound 212, N-{4-[2-(4-chloro-3-fluorophenoxy)acetamido]-2-hydroxybicyclo[2.2.2]octan-1-yl}-1,3-thiazole-4-carboxamide] | 250 to 1000
31 | O=C(COc1ccc(Cl)c(F)c1)NC12CC(NC(=O)c3cnc(O)cn3)(C1)C2 [Compound 184, N-{3-[2-(4-chloro-3-fluorophenoxy)acetamido]bicyclo[1.1.1]pentan-1-yl}-5-hydroxypyrazine-2-carboxamide] | > 2000
32 | O=C(COc1ccc(Cl)c(F)c1)NC12CC(NC(=O)c3cocn3)(C1)C2 [Compound 852, N-{3-[2-(4-chloro-3-fluorophenoxy)acetamido]bicyclo[1.1.1]pentan-1-yl}-1,3-oxazole-4-carboxamide] | 1000 to 2000
33 | Cc1cnc(C(=O)NC23CC(NC(=O)COc4ccc(Cl)c(F)c4)(C2)C3)o1 [Compound 478, N-{3-[2-(4-chloro-3-fluorophenoxy)acetamido]bicyclo[1.1.1]pentan-1-yl}-5-methyl-1,3-oxazole-2-carboxamide] | 50 to 250
34 | O=C(COc1ccc(Cl)c(F)c1)NC12CC(Nc3cc(C(F)(F)F)ccn3)(C1)C2 [Compound 757, 2-(4-chloro-3-fluorophenoxy)-N-(3-{[4-(trifluoromethyl)pyridin-2-yl]amino}bicyclo[1.1.1]pentan-1-yl)acetamide] | > 2000
